Converted amounts (≈) assume the structure as drawn.
Experiments:
[1] = Plasma concentration in rat at 10 mg/kg, po measured after 3 hrs; format: ADME, organism-based
Rattus norvegicus [2] = assay: Analgesic activity in rat model of partial sciatic nerve ligation-induced neuropathic pain assessed as reversal of allodynia at 1 mg/kg, po measured after 3 hrs relative to control; format: functional
[3] = Plasma concentration in rat at 3 mg/kg, po measured after 3 hrs; format: ADME, organism-based
Rattus norvegicus [4] = assay: Analgesic activity in rat model of partial sciatic nerve ligation-induced neuropathic pain assessed as reversal of allodynia at 10 mg/kg, po measured after 3 hrs relative to control; format: functional
[5] = Clearance in rat at 1 mg/kg, iv; format: ADME, organism-based; settings: in vivo
[6] = Plasma concentration in rat at 1 mg/kg, po measured after 3 hrs; format: ADME, organism-based
Rattus norvegicus [7] = assay: Analgesic activity in rat model of partial sciatic nerve ligation-induced neuropathic pain assessed as reversal of allodynia at 3 mg/kg, po measured after 3 hrs relative to control; format: functional
[8] = Half life in rat at 1 mg/kg, iv; format: ADME, organism-based; settings: in vivo
P2X purinoceptor 3 = biological target: T1, P2X purinoceptor 3 (Rattus norvegicus, UniProt P49654); assay: Antagonist activity at rat P2X3 receptor
T1 sequence (P49654 whole entry): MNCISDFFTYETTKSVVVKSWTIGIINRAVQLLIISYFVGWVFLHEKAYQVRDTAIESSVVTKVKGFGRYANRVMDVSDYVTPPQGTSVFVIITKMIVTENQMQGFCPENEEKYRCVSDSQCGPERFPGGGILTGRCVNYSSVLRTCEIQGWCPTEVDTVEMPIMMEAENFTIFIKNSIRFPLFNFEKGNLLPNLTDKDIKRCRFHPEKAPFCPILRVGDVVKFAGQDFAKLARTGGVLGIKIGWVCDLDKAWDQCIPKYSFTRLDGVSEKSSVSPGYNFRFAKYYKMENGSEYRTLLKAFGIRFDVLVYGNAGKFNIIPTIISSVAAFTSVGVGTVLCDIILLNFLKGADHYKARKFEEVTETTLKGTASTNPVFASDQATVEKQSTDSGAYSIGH

P2X purinoceptor 1 = biological target: T2, P2X purinoceptor 1 (Homo sapiens, UniProt P51575); assay: Antagonist activity at P2X1 receptor (unknown origin)
T2 sequence (P51575 whole entry): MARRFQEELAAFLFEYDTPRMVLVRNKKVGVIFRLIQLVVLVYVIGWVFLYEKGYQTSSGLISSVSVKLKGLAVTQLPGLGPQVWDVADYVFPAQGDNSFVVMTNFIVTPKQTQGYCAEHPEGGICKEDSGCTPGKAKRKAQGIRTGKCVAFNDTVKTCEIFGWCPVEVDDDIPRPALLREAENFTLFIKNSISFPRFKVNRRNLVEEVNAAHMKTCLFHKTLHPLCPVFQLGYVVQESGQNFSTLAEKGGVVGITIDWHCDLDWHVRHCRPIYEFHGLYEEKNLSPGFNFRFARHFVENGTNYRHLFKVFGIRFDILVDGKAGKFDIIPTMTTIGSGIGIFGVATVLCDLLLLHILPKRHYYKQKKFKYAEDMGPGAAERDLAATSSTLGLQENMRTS

[9] = Oral bioavailability in rat at 3 mg/kg; format: ADME, organism-based; settings: in vivo
P2X purinoceptor 2 = biological target: T3, P2X purinoceptor 2 (Homo sapiens, UniProt Q9UBL9); assay: Antagonist activity at P2X2 receptor (unknown origin)
T3 sequence (Q9UBL9 whole entry): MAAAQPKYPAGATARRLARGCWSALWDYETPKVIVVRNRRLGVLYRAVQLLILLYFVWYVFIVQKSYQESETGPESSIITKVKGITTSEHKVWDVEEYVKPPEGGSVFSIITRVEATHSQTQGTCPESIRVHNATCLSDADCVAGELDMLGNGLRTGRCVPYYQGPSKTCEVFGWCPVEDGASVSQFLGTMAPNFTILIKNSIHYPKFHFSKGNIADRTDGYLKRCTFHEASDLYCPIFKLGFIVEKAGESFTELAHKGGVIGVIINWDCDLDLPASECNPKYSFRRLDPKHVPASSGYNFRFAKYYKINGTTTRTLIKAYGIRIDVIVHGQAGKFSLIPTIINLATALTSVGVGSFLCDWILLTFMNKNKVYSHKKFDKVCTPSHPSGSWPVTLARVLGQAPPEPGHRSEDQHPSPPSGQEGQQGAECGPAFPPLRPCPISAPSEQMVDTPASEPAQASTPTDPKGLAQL

[10] = Protein binding in rat plasma assessed as unbound fraction at 3 mg/kg, iv; format: ADME, organism-based
Cytochrome P450 2C9 = Cytochrome P450 2C9 (Homo sapiens, UniProt P11712); assay: Inhibition of CYP2C9 (unknown origin); format: ADME
Cytochrome P450 2C9, sequence (P11712 whole entry): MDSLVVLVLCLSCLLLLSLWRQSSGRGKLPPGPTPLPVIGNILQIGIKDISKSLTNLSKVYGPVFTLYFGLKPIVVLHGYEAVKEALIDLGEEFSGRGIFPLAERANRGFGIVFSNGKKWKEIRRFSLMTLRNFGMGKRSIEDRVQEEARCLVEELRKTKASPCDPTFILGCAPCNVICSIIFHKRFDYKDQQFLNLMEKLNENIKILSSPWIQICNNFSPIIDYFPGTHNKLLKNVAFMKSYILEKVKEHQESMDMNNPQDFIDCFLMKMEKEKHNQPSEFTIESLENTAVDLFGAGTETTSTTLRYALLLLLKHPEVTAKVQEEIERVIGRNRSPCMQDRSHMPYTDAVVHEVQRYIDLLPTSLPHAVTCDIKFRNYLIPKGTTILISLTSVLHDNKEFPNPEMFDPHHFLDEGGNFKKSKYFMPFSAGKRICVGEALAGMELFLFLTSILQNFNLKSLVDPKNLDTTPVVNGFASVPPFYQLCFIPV

[11] = Cmax in rat at 3 mg/kg, po; format: ADME, organism-based; design: route oral, dose 3 mg/kg; settings: in vivo
Cytochrome P450 2D6 = Cytochrome P450 2D6 (Homo sapiens, UniProt P10635); assay: Inhibition of CYP2D6 (unknown origin); format: functional
Cytochrome P450 2D6, sequence (P10635 whole entry): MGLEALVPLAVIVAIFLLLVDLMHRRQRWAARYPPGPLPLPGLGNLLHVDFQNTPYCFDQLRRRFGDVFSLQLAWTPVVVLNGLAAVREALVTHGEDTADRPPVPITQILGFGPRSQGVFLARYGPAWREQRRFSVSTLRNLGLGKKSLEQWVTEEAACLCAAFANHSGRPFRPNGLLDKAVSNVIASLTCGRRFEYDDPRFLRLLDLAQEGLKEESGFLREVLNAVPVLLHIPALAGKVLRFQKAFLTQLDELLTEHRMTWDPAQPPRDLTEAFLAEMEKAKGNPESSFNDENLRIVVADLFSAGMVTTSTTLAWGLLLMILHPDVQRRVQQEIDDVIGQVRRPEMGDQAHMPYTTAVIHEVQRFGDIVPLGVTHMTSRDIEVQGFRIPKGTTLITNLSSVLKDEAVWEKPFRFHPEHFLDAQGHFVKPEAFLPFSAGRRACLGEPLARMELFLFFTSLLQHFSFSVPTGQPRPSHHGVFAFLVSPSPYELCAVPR

[12] = Solubility of the compound in JP2 fluid at pH 6.8; format: physicochemical
P2X purinoceptor 4 = biological target: T4, P2X purinoceptor 4 (Homo sapiens, UniProt Q99571); assay: Antagonist activity at P2X4 receptor (unknown origin)
T4 sequence (Q99571 whole entry): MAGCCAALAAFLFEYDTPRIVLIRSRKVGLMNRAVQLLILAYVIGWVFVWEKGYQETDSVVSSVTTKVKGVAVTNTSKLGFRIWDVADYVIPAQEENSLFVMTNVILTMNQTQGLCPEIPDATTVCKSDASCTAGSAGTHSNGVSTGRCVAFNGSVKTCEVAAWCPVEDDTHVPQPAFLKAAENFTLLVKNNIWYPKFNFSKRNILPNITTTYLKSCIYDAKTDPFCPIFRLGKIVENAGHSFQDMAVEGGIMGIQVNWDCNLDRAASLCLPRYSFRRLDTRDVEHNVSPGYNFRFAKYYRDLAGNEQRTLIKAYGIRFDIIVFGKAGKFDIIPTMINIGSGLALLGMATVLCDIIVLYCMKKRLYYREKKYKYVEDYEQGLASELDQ

Cytochrome P450 3A4 = Cytochrome P450 3A4 (Homo sapiens, UniProt P08684); assay: Inhibition of CYP3A4 (unknown origin); format: ADME
Cytochrome P450 3A4, sequence (P08684 whole entry): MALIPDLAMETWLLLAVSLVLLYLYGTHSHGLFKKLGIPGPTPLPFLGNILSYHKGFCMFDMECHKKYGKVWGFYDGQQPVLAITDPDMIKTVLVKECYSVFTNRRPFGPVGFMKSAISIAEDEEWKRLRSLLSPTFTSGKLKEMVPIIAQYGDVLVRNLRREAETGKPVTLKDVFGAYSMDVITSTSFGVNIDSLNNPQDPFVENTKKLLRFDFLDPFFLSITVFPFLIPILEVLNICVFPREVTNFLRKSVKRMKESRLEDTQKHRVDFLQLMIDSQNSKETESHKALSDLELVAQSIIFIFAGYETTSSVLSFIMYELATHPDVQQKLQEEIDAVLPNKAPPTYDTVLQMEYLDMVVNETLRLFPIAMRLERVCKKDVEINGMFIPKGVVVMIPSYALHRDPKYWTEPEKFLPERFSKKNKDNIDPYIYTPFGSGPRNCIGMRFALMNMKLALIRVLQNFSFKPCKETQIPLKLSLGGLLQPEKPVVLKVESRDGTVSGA

[13] = Solubility of the compound in pH 1.2 JP1 fluid; format: physicochemical
P2X purinoceptor 7 = biological target: T5, P2X purinoceptor 7 (Homo sapiens, UniProt Q99572); assay: Antagonist activity at P2X7 receptor (unknown origin)
T5 sequence (Q99572 whole entry): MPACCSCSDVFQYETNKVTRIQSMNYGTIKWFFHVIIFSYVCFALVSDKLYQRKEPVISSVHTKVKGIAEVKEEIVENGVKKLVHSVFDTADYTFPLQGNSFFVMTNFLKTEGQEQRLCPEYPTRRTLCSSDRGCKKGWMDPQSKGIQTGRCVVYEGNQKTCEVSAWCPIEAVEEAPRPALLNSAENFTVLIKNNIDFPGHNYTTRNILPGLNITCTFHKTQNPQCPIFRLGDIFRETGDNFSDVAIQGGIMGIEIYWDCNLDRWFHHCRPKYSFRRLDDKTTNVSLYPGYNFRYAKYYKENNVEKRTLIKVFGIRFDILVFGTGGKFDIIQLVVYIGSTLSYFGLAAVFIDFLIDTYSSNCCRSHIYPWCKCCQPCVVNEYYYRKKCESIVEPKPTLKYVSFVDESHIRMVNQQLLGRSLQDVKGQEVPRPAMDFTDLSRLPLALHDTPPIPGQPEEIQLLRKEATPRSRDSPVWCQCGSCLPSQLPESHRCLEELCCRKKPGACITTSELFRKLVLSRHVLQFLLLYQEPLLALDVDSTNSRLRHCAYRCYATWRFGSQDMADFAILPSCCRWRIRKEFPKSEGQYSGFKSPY

Cytochrome P450 1A2 = biological target: T6, Cytochrome P450 1A2 (Homo sapiens, UniProt P05177); assay: Inhibition of CYP1A2 (unknown origin); format: ADME
T6 sequence (P05177 whole entry): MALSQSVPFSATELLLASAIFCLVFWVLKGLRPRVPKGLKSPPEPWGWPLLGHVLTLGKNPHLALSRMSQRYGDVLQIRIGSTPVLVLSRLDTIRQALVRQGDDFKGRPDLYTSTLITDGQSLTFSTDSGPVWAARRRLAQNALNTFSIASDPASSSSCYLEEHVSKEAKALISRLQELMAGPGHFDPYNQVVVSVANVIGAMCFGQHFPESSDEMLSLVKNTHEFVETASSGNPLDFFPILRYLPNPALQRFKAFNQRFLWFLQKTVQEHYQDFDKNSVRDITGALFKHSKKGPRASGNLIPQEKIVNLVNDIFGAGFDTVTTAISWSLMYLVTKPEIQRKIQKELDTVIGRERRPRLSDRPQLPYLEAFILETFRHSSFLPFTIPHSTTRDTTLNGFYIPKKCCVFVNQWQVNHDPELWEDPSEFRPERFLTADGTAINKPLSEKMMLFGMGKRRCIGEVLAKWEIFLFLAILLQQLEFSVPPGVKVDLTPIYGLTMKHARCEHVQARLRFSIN

[14] = Protein binding in rat plasma assessed as unbound fraction at 1 mg/kg administered as cassette dose; format: ADME, organism-based
[15] = AUC in rat at 3 mg/kg, po; format: ADME, organism-based; design: dose 3 mg/kg; settings: in vivo
[16] = Free plasma concentration in rat plasma at 1 mg/kg administered as cassette dose; format: ADME, organism-based; settings: in vivo
[17] = Oral bioavailability in rat at 1 mg/kg administered as cassette dose; format: ADME, organism-based; settings: in vivo
Rattus norvegicus [18] = assay: Analgesic activity in po dosed rat model of partial sciatic nerve ligation-induced neuropathic pain; format: functional
Cytochrome P450 2C19 = Cytochrome P450 2C19 (Homo sapiens, UniProt P33261); assay: Inhibition of CYP2C19 (unknown origin); format: ADME
Cytochrome P450 2C19, sequence (P33261 whole entry): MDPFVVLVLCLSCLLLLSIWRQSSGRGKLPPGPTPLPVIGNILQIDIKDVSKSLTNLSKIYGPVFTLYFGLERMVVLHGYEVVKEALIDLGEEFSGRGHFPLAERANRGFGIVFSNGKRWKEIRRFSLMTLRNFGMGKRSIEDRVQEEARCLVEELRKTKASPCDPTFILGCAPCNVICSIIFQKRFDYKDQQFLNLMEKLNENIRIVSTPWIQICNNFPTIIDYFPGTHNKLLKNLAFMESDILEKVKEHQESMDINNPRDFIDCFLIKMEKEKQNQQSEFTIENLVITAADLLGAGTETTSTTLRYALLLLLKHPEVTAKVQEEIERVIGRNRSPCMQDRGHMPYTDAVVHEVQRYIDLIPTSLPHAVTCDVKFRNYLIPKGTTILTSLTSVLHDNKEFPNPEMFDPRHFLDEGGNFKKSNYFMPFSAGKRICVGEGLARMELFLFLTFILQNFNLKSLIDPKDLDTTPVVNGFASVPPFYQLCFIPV

SMILES: Cc1ccc(Cn2c(Nc3ccc(OC(C)C)c(Cl)c3)nc(=O)n(CCC(=O)O)c2=O)cc1
- concentration at 3 h [1]: 7840 nM
- Activity (Rattus norvegicus [2]): 11%
- concentration at 3 h [3]: 2650 nM
- Activity (Rattus norvegicus [4]): 40%
- clearance [5]: 2.7 mL/min/kg
- concentration at 3 h [6]: 1320 nM
- Activity (Rattus norvegicus [7]): 23%
- half-life [8]: 1.6 h
- IC50 (P2X purinoceptor 3): 0.0061 µM

SMILES: C[C@@H](Cn1c(=O)[nH]/c(=N\c2ccc(Oc3ccsn3)cc2)n(Cc2ccc(Cl)cc2)c1=O)C(=O)O
- IC50 (P2X purinoceptor 1): > 30 µM
- bioavailability [9]: 60%
- IC50 (P2X purinoceptor 2): > 30 µM
- fraction unbound [10]: 0.012
- IC50 (Cytochrome P450 2C9): > 20 µM
- Cmax [11]: 1610 ng/mL
- IC50 (Cytochrome P450 2D6): > 20 µM
- solubility [12]: 650 µg/mL (≈ 1260 µM)
- IC50 (P2X purinoceptor 4): > 30 µM
- IC50 (Cytochrome P450 3A4): > 20 µM
- solubility [13]: 0.8 µg/mL (≈ 1.56 µM)
- clearance [5]: 2.2 mL/min/kg
- IC50 (P2X purinoceptor 7): > 30 µM
- half-life [8]: 4.4 h
- IC50 (P2X purinoceptor 3): 0.0077 µM
- IC50 (Cytochrome P450 1A2): > 20 µM
- fraction unbound [14]: 0.012
- AUC [15]: 13700 ng·h/mL
- Cp(f) [16]: 671 nM
- bioavailability [17]: 87.6%
- ED50 (Rattus norvegicus [18]): 0.4 mg/kg
- IC50 (Cytochrome P450 2C19): > 20 µM

SMILES: C[C@@H](Cn1c(=O)[nH]/c(=N\c2ccc(Oc3ccnc(F)c3)cc2)n(Cc2ccc(Cl)cc2)c1=O)C(=O)O
- IC50 (P2X purinoceptor 1): > 30 µM
- bioavailability [9]: 46.9%
- IC50 (P2X purinoceptor 2): > 30 µM
- fraction unbound [10]: 0.013
- IC50 (Cytochrome P450 2C9): > 20 µM
- Cmax [11]: 597 ng/mL
- IC50 (Cytochrome P450 2D6): > 20 µM
- solubility [12]: 212 µg/mL (≈ 403 µM)
- IC50 (P2X purinoceptor 4): > 30 µM
- IC50 (Cytochrome P450 3A4): > 20 µM
- solubility [13]: 2.2 µg/mL (≈ 4.18 µM)
- clearance [5]: 5.9 mL/min/kg
- IC50 (P2X purinoceptor 7): > 30 µM
- half-life [8]: 4.3 h
- IC50 (P2X purinoceptor 3): 0.0038 µM
- IC50 (Cytochrome P450 1A2): > 20 µM
- fraction unbound [14]: 0.013
- AUC [15]: 4020 ng·h/mL
- Cp(f) [16]: 738 nM
- bioavailability [17]: 43.2%
- ED50 (Rattus norvegicus [18]): 0.3 mg/kg
- IC50 (Cytochrome P450 2C19): > 20 µM
